Results reported in publication PMC4644980, “The FDA-approved natural product dihydroergocristine reduces the production of the Alzheimer’s disease amyloid-β peptides” (Scientific Reports, 2015).

How the values were obtained:
[1] = system: γ-secretase (APP-CTF processing) in HEK293 cells; experiment: Western blot of endogenous APP-FL and APP-CTF in HEK293 cells; type: cell-based; conditions: 24 h
Method: (§3) The levels of β-actin were used as equal loading controls. […] The levels of β-actin served as equal loading controls.
(§4) Western Blot analysis of full-length APP, APP-CTFs, Notch1-NICD and γ-secretase components was carried out according to the procedures described in the Supplementary information[31].

[2] = system: Aβ production in HEK293 cells; experiment: Aβ total ELISA of media from HEK293 cells; type: cell-based
Method: (§1) The levels of β-actin were used as equal loading controls. […] The Aβ data are expressed as a percentage of the control value and presented as the means ± sd. […] Fibroblast cells from an AD patient carrying the PS1 missense mutation A246E were treated with various compounds, and the levels of APP-FL, APP-CTF and β-actin, as well as Aβ, were measured as described above. The Aβ data are expressed as a percentage of the control value and presented as the means ± sd. (n = 3). […] The levels of β-actin served as equal loading controls. The densitometric quantifications for the Western Blots are shown in Supplementary Fig. S2. For full blots, please see Supplementary Fig. S9.
(§2) Aβ1-x peptides secreted in the cell media were quantitatively measured by ELISA (IBL, Gunma, Japan) according to the standard protocol from the manufacturer. Aβ40 and Aβ42 generated in the C100-Flag γ-secretase assays stopped with 0.5% SDS (final concentration) were quantified with the human Beta Amyloid or [1–42] colorimetric ELISA kit, respectively.

[3] = system: endogenous γ-secretase in fibroblast cells from an AD patient; experiment: Western blot of APP-CTF in fibroblast cells from an AD patient (PS1 A246E); type: cell-based, human; conditions: dose series
Method: Fibroblast cells from an AD patient carrying the PS1 missense mutation A246E were treated with various compounds, and the levels of APP-FL, APP-CTF and β-actin, as well as Aβ, were measured as described above. […] (n = 3). […] The levels of β-actin served as equal loading controls.
as §4

[4] = system: Aβ production in fibroblast cells from an AD patient; experiment: Aβ total ELISA of media from fibroblast cells from an AD patient (PS1 A246E); type: cell-based, human
Method: as §1, §2

[5] = system: human Notch1 extracellular truncation (NEXT) cleavage by γ-secretase; experiment: cleavage of human Notch1 NEXT (NICD Western blot) in HEK293 cells; type: cell-based
Method: as §3, §4

[6] = system: γ-secretase subunits (mNCT, PS1-NTF); experiment: Western blot of γ-secretase subunits in HEK293 or fibroblast cells; type: cell-based
Method: for 10 min before adding 25 µl of the stop solution. The fluorescence was monitored with a microplate reader (emission at 590 nm after excitation at 560 nm).
Western blot and antibodies
WT HEK293 or fibroblast cells were collected and lysed in 1% Nonidet P-40-HEPES buffer, and equal amounts of proteins [normalized by BCA (Pierce)] were separated by SDS-PAGE onto a 12% Tris-glycine gel, transferred onto a PVDF membrane (Bio-Rad, USA) and further probed with antibody CT15 (for APP/APP-CTFs, 1:2000, […]
(1:1000; Abcam, Cambridge, MA, USA) for PS1-NTF, UD-1 (for Pen-2, 1:500; a gift of Dr. Helena Karlström, Karolinska Institute, Sweden), NCT164 (for NCT, 1:1000; BD Bioscience, Bedford, MA, USA) as well as with an antibody for β-actin (1:2000, Abmart). For the analysis of Notch NICD, cell extracts were separated by SDS-PAGE onto a 10% Tris-glycine gel, transferred onto a PVDF membrane and blotted for NICD with an anti-Notch Ab1744 antibody (for the free N-terminus of NICD, 1:500, Cell Signaling Technology, Beverly, MA, USA).
Samples from in vitro γ-secretase activity assays were run on 16% Tricine-SDS-PAGE gels and transferred onto PVDF to detect Aβ and AICD-Flag with 6E10 (1:1000, Covance, Berkeley, CA, USA) and CT15 antibodies (1:5000, Sigma-Aldrich), […]

γ-secretase = γ-secretase (Homo sapiens, UniProt P49768+Q92542); experiment: cell-based luciferase reporter assay for γ-secretase inhibition (T100 cells); design: endogenous in cells; host or cells: T-REx HeLa cells (T100) stably transfected with the substrate C99-Gal4-VP16 and a luciferase reporter; conditions: 24 h, read-out: IC50, inhibition of APP-C99 processing
Method: To identify natural product-based bioactive inhibitors of γ-secretase, we screened 417 natural products by using a cell-based luciferase reporter assay for γ-secretase inhibition (T100, see Methods), which we recently developed in TREx HeLa cells according to the methodology described in ref. [17]. […] Thus, this assay is sufficiently sensitive to detect the inhibitory effects of 100 nM DAPT on cellular γ-secretase activity. Additionally, this new cell-based assay tolerated up to 2% DMSO, which is a great advantage when screening inhibitors in a high-throughput format.
T-REx-HeLa cells (T100) stably overexpressing C99-Gal4-VP16 and luciferase were generated according to the method described in refs [17],[30]. For details, see Supplementary Information.
Cell-based γ-secretase assays were performed using the T100 cell line according to the methods detailed in ref. [30] (for details, see Supplementary information). […]
concentrations of substrate at 37 °C for 4 h, after which the enzymatic reactions were stopped by adding 0.5% SDS (final concentration). The samples were analyzed by Western Blot for AICD-Flag or Aβ. […]

## C[C@H](NC(=O)Cc1cc(F)cc(F)c1)C(=O)N[C@H](C(=O)OC(C)(C)C)c1ccccc1 [DAPT, N-[N-(3,5-difluorophenylacetyl)-L-alanyl-]-(S)-phenylglycine-t-butyl ester]
[1]
  accumulation of the carboxy-terminal fragments of APP (APP-CTFs): dose-dependent accumulation
[2]
  total Aβ levels: markedly reduced
[3]
  accumulation of APP-CTFs: dose-dependent accumulation
[4]
  total Aβ levels: markedly reduced
[5]; HEK293 cells overexpressing hAPP or Notch1-NEXT
  preference for APP-based versus Notch-based substrate: showed no preference
[5]; HEK293 cells overexpressing human NEXT, 1 μM
  production of intracellular human NICD: completely blocked
[6]
  assembly and maturation of the protease complex (mNCT, PS1-NTF): not altered
γ-secretase
  IC50: ~200 nM
